# Measured values taken from ChEMBL document CHEMBL4513101, “Naegleria gruberi Pathogen Box compounds screening” (2021).
# Calls of active or inactive are those of the source. Cut-off read from the data, not from the text of the source: active = inhibition of 80% or more and inactive = less.
# Tested on: Naegleria gruberi
# Assay: microbe, parasite or virus in culture
# Assay type: functional
# Settings: NEG-M, CONC 10 uM
# Description: Growth inhibiting activity of Naegleria gruberi in vitro
row,Structure (SMILES),inhibition at 10 µM
1,COc1cccc(-n2nnnc2S(C)(=O)=O)c1,78.8% (not active)
2,NS(=O)(=O)c1cncc(-c2ccc3nccc(-c4cn[nH]c4)c3n2)c1,0% (not active)
3,Nc1nccc2ccc(Oc3ccncc3)cc12,3% (not active)
4,Cc1ccccc1CN1CCC(O)(c2ccc(Cl)c(C(F)(F)F)c2)CC1,47.4% (not active)
5,Nc1ccc(C(=O)Nc2ccc(-c3nc4ccccc4o3)cc2)cc1,6.1% (not active)
6,CN(C(=O)c1cc2c(-c3cncnc3)cccc2[nH]1)c1ccccc1,27.7% (not active)
7,c1ccc(-c2nc(NC3CCCCC3)cc(C3CC3)n2)nc1,23.7% (not active)
8,Cc1nc(-c2cccc(NCc3ccccc3)c2)[nH]c1C,8.1% (not active)
9,CC(C)(C)c1cc(C(=O)Nc2cccnc2)cc(C(=O)Nc2cccnc2)c1,28% (not active)
10,CN1CCC(NCc2cccc(-c3ccc(S(=O)(=O)NCc4ccccc4)cc3)c2)CC1,14.4% (not active)
11,CN1CCN(S(=O)(=O)c2ccc(-c3ccc4c(Nc5ncc(Cl)cn5)ccnc4c3)cc2)CC1,43.6% (not active)
12,COc1cccc2c(C)nc(N=C(N)N)nc12,24.2% (not active)
13,CCOc1ccccc1NC(C)C(=O)Nc1cc(C(F)(F)F)ccc1N1CCOCC1 (configuration not stated),20.8% (not active)
14,CCCCS(=O)(=O)Nc1ccc2cnn(C)c2c1,17.4% (not active)
15,Brc1c(-c2ccc3c(c2)OCO3)nc2ncccn12,39.1% (not active)
16,COc1ccc(-c2cnc3ccc(NCc4ccc(S(N)(=O)=O)cc4)nn23)cn1,10.2% (not active)
17,COc1ccc(C2(C(=O)Nc3ccc(Br)cc3)CCCC2)cc1,11.1% (not active)
18,FC(F)(F)c1cnc(Sc2nnc(-c3ccncc3)o2)c(Cl)c1,42.8% (not active)
19,O=C(c1ccc(F)cc1)N(CCNc1ccccc1)c1ccccc1,24.1% (not active)
20,CCN(CC)S(=O)(=O)c1ccc(C(=O)Nc2cc(C)nn2-c2nc(C)c(C)c(=O)[nH]2)cc1,41.8% (not active)
21,N#Cc1ccc(-c2ccc(OCC(N)=O)cc2)cc1,33.5% (not active)
22,CCC(=O)Nc1ccccc1C(=O)Nc1ccccn1,35.7% (not active)
23,N=C(N)Nc1ccc(-c2ccc(-c3ccc(NC(=N)N)cc3Cl)o2)c(Cl)c1,24% (not active)

row,Structure (SMILES),inhibition at 10 µM
1,Cc1cccc(C(=O)Nc2ccnc(N(C)C3CCN(CC(C)C)CC3)c2)c1,35.1% (not active)
2,Cc1nnc(NCc2cccc(Cl)c2)c2ccccc12,38.4% (not active)
3,COc1cccc(OC)c1C(=O)Nc1ccc(Cl)c(-c2nc3ccccc3s2)c1,19.2% (not active)
4,O=C(Nc1cnc2ccccc2c1)c1cccc(-n2cnnn2)c1,9.8% (not active)
5,CCC(Sc1nc2ccccc2o1)C(=O)Nc1nnc(C)s1 (configuration not stated),8.4% (not active)
6,COc1ccc(S(=O)(=O)Nc2ccc(CN3CCN(C(=O)c4cccc(C#N)c4)CC3)cc2)cc1,18.8% (not active)
7,CCCc1ccc(S(=O)(=O)Nc2ccc(CN3CCN(CC4CC4)CC3)cc2)cc1,30.3% (not active)
8,C[C@H]1COc2c(N3CCN(C)CC3)c(F)cc3c(=O)c(C(=O)O)cn1c23 [LEVOFLOXACIN],0% (not active)
9,COc1ccc(-c2onc(C(F)(F)F)c2-c2ccc(Cl)cc2)c(O)c1,45.5% (not active)
10,Cc1ccc2cc(C3NC(=O)c4ccccc4N3)c(Cl)nc2c1 (configuration not stated),46.1% (not active)
11,Nc1c2c(nc3sc4c(c13)CCCC4)CCCC2,48.3% (not active)
12,Nc1nc(N)c2c3c(sc2n1)CN(Cc1ccccc1)CC3,2.1% (not active)
13,CCCNC(=O)N1CCC2(CC1)CC(=O)c1cc(C)ccc1O2,11.6% (not active)
14,OCc1ccc(-c2cncc(Nc3cccc(Cl)c3)c2)cc1,18.8% (not active)
15,FC(F)(F)c1nnc2ccc(Cl)nn12,16.8% (not active)
16,O=C(Nc1ccnc(-c2cccnc2)n1)c1cc(C(F)(F)F)cc(C(F)(F)F)c1,44.3% (not active)
17,CCc1cc(=O)n(C)c(SC(C)C(=O)Nc2ccc(F)cc2)n1 (configuration not stated),10.4% (not active)
18,Clc1ccc(-n2cc(COc3ccnc4ccccc34)nn2)cc1,75.2% (not active)
19,NS(=O)(=O)c1cccc(-c2ccc3ncc(N4CCOCC4)nc3c2)c1,26% (not active)
20,FC(F)(F)c1cc(NCCc2ccccc2)nc(-c2ccccn2)n1,24.6% (not active)
21,Clc1ccc(CN2CCN(C3=NCCN3)CC2)cc1Cl,23.3% (not active)
22,CC(C)(C)OC(=O)N1CCC(Cn2nc(-c3cnc4ccccc4c3)c3c(N)ncnc32)CC1,57.8% (not active)
23,c1ccc(Oc2ccc(-c3cc(N4CCOCC4)[nH]n3)cc2)cc1,22.4% (not active)

row,Structure (SMILES),inhibition at 10 µM
1,c1cncc(NCc2ccc(-c3cc4ccncc4cc3OC3CCNCC3)s2)c1,19.4% (not active)
2,Cc1nc(-c2ccccn2)nc(N(C)CCc2ccccc2)c1Cl,21.1% (not active)
3,Cc1cc(NCCc2ccccc2)nc(NC(=N)Nc2ccc(Cl)cc2)n1,19.6% (not active)
4,O=C(C1CCN(c2cc(-n3cccc3)ncn2)CC1)N1CCc2ccccc2C1,13.5% (not active)
5,c1cc(C2=NCCN2)cc(-c2cc(-c3ccc(C4=NCCN4)cc3)no2)c1,24.2% (not active)
6,O=C(Nc1cccc(-c2ccc(NCCCN3CCCC3)nc2)c1)c1ccccc1,8.2% (not active)
7,CN1CCN(c2nccc3nc(-c4ccc(F)c(F)c4)[nH]c23)CC1,35% (not active)
8,O=C(Nc1ccc2c(c1)B(O)OC2)c1ccccc1C(F)(F)F,89.8% (active)
9,c1ccc(Oc2ccc(-c3cc(CN4CCOCC4)[nH]n3)cc2)cc1,3.2% (not active)
10,CC(=O)NC[C@@H]1CN(c2ccc(N3CCOCC3)c(F)c2)C(=O)O1,20.1% (not active)
11,CNC1C(OC2C(OC3C(O)C(O)C(N=C(N)N)C(O)C3N=C(N)N)OC(C)C2(O)C=O)OC(CO)C(O)C1O (configuration not stated),0% (not active)
12,CCCCc1ccc(C(=O)Nc2nccc3ccccc23)nc1,43.2% (not active)
13,COC(=O)c1ccc(F)cc1NS(=O)(=O)c1cccc(-c2cnn(Cc3ccccc3)c2)c1,26.2% (not active)
14,FC(F)(F)c1cccc(-c2nc3c(NCc4ccncc4)nccc3[nH]2)c1,25.1% (not active)
15,CC(C)(C)n1nc(Cc2ccc(F)c(Cl)c2)c2c(N)ncnc21,32% (not active)
16,N=C(N)Nc1ccc(-c2ccc(-c3ccc(N=C(N)N)c(Cl)c3)o2)cc1Cl,22.3% (not active)
17,Cc1cccc(-c2nc(Nc3ccncn3)c3sccc3n2)n1,34% (not active)
18,CN1CCCC1CCO[C@](C)(c1ccccc1)c1ccc(Cl)cc1 (some centres not stated),64.4% (not active)
19,Nc1ccc2ncnc(Nc3ccc(OCc4cccc(F)c4)c(Cl)c3)c2c1,10.6% (not active)
20,CC(C)(C)c1cnc(NC(=O)c2ccccc2O)s1,0% (not active)
21,Cc1cc(C)nc(-n2nc(C)cc2Nc2ccccc2)n1,31.5% (not active)
22,CC(=O)Nc1ccc(-c2noc(CC3CCCN(Cc4cccc(F)c4C)C3)n2)cc1 (configuration not stated),37.2% (not active)
23,O=C(N[C@H](Cc1ccccc1)C(=O)Nc1ccccc1N1CCOCC1)c1cccs1,29.6% (not active)

row,Structure (SMILES),inhibition at 10 µM
1,O=C(NCc1ccoc1)N1CCN(Cc2ccc3c(c2)OCO3)CC1,28.7% (not active)
2,O=C(NC1CCN(c2ccnc3ccccc23)C1)c1cccc(C(F)(F)F)c1 (configuration not stated),6.7% (not active)
3,Cc1cc(C)c2cc(C(=O)NC3CCCCCCC3)[nH]c2c1,30.2% (not active)
4,C[C@H](C(N)=O)N1CCCC[C@@H]1c1ccc(OCc2cccc(F)c2)cc1,13.9% (not active)
5,CNCCC(Oc1ccc(C(F)(F)F)cc1)c1ccccc1 (configuration not stated) [FLUOXETINE],7.5% (not active)
6,O=C(NCc1cc(Cl)cc(Cl)c1)c1c(C(F)(F)F)nc2ccccn12,28.4% (not active)
7,O=C(Nc1nnc(-c2ccc(Cl)cc2)o1)c1cccc(C(F)(F)F)c1,19.7% (not active)
8,Cc1cc(NC(=O)c2ccc(Oc3ccc(Cl)cc3O)o2)no1,0% (not active)
9,COc1cc(NC(C)CCCN)c2ncccc2c1 (configuration not stated) [PRIMAQUINE],10.7% (not active)
10,CCc1c(C)nc(-n2nc(C)cc2NC(=O)c2ccccc2SC)[nH]c1=O,17.4% (not active)
11,COc1ccccc1C(C)NCC(=O)Nc1cc(C(F)(F)F)ccc1Cl (configuration not stated),49.5% (not active)
12,Cc1nn(C)cc1C(C)Nc1nncc(-c2ccc(C(F)(F)F)cc2)n1 (configuration not stated),0% (not active)
13,O=C1N(Cc2cc3ccccc3s2)CC2CN(Cc3ccccc3)CCN12 (configuration not stated),34.3% (not active)
14,CN1CCN(S(=O)(=O)c2ccc(-c3ccc4c(Nc5ccc6nn[nH]c6c5)ccnc4c3)cc2)CC1,10.8% (not active)
15,Cc1ccccc1C(=O)N1N=C(Nc2ccccc2)SC1(C)C,12.6% (not active)
16,CCOC(=O)NC(=O)c1ccsc1NC(=O)c1nc2ccccc2s1,89.3% (active)
17,O=[N+]([O-])c1cn2c(n1)OC[C@@H](OCc1ccc(OC(F)(F)F)cc1)C2 [PRETOMANID],16.1% (not active)
18,COC(=O)Nc1nc2cc(C(=O)c3ccccc3)ccc2[nH]1 [MEBENDAZOLE],29.8% (not active)
19,CCCCCCCCCCCCCCCCOP(=O)([O-])OCC[N+](C)(C)C [MILTEFOSINE],4% (not active)
20,COc1cc2ncnc(NC3CCN(Cc4ccccc4)CC3)c2cc1OC,13.6% (not active)
21,Cc1cc(Cl)c(S(=O)(=O)N2CCCC2)cc1OCC(=O)NC1CCCCC1,11% (not active)
22,Cc1cc(Cl)ccc1NC(=O)CCc1ccc(S(=O)(=O)NCC(C)C)cc1,13.9% (not active)
23,CCOC(=O)c1c(NC(=O)c2c(F)c(F)c(F)c(F)c2F)sc(C(N)=O)c1C,5.8% (not active)
